Laboratory results as given in PMC6631481, “De Novo Design and In Vitro Testing of Antimicrobial Peptides against Gram-Negative Bacteria” (Pharmaceuticals, 2019).
Values after ≈ are worked out from the molar mass of the structure shown. Where two headings read alike, the source gives them in different places. Non-standard residues stand in square brackets, D forms with d. Residues, ends and D or L forms follow the SMILES beside them. No end group written: not given here.

How the values were obtained:
Assay type in all cases: cell-based
[1] = tested on: Escherichia coli ATCC 25922
Method: The MICs of the designed cationic peptides against Escherichia coli ATCC 25,922 strains were determined by the broth microdilution method, as described by Hancock et al.. All MIC evaluations were performed using Luria Bertani (LB) medium. Briefly, a range of each peptide concentrations (100 µg/mL, 50 µg/mL, 25 µg/mL, 12.5 µg/mL, 6.25 µg/mL, 3.125 µg/mL) was prepared by serial dilution in NaCl-depleted LB medium and added to an equal volume (250 µl) of exponentially grown bacterial culture, so that final bacterial suspension contained 5 × 10^5 CFU/mL. The samples were incubated in 2 mL polypropylene microtubes at 37 °C overnight at 300 rpm. The MIC was defined as the concentration at which no microbial growth was detected spectrophotometrically, via readings of optical density (OD) at 600 nm (Biotek ELX800 microplate reader). Growth medium containing only bacterial cells was used as a negative control. Each MIC test was carried out in two replicates and repeated three times.

[2] = tested on: A. baumannii Josh 230; test: microbe, parasite or virus in culture
From the text: (§1) The following strains were used: P. aeruginosa (ATCC 27,853 and resistant strains: J4228 (R: Meropenem), BB2013-100 (FQR)); A. baumannii (Josh 28 and resistant strain Josh 230 (OXA-48); E. cloacae (resistant strains: BB2012-181(R: Meropenem), BB2013-32 (FQR)); E. aerogenes (resistant strain St. L P63 (NDM-1), E. asburiae/cloacae (resistant strain St. L P23 (NDM-1), K. pneumonia (J3702 and resistant strains: BB2009-209 (KPC-2), Oschner KP-1), Escherichia coli (BW25113 (7636) and resistant strains: JW55034 (11430) (Tol neg), BB2013-30 (R:carbapenem), ARLG-1012 (NDM)). Susceptibility testing was performed using non-cation adjusted MHB broth and polypropylene plates. Testing was also done in the presence and absence of acetic acid and BSA.

[3] = tested on: A. baumannii Josh 28; test: microbe, parasite or virus in culture
From the text: as §1

[4] = tested on: E. aerogenes St. L P63; test: microbe, parasite or virus in culture
From the text: as §1

[5] = tested on: E. cloacae BB2012-181; test: microbe, parasite or virus in culture
From the text: as §1

[6] = tested on: E. cloacae BB2013-32; test: microbe, parasite or virus in culture
From the text: as §1

[7] = tested on: E. coli ARLG-1012; test: microbe, parasite or virus in culture
From the text: as §1

[8] = tested on: E. coli BB2013-30; test: microbe, parasite or virus in culture
From the text: as §1

[9] = tested on: E. coli BW25113 (7636); test: microbe, parasite or virus in culture
From the text: as §1

[10] = tested on: E. coli JW55034 (11430); test: microbe, parasite or virus in culture; conditions: phenotype Tol neg, non-cation adjusted MHB broth, polypropylene plates, meropenem by standard CLSI method
From the text: as §1

[11] = tested on: K. pneumoniae BB2009-209; test: microbe, parasite or virus in culture
From the text: as §1

[12] = tested on: K. pneumoniae J3702; test: microbe, parasite or virus in culture
From the text: as §1

[13] = tested on: K. pneumoniae Oschner KP-1; test: microbe, parasite or virus in culture
From the text: as §1

[14] = tested on: P. aeruginosa ATCC 27853; test: microbe, parasite or virus in culture
From the text: as §1

[15] = tested on: P. aeruginosa BB2013-100; test: microbe, parasite or virus in culture
From the text: as §1

[16] = tested on: P. aeruginosa J4228; test: microbe, parasite or virus in culture
From the text: as §1

[17] = tested on: E. asburiae/cloacae St. L P23; test: organism not typed
From the text: as §1

Compound: KFRKFGKQVWVRL-NH2 [SP8]
- MIC At NaCl [1]: 12.5 to 25 µg/mL
- MIC Without NaCl [1]: 3.125 to 6.25 µg/mL

Compound: GIKFFLKKLKKHI-NH2 [SP4]
- MIC At NaCl [1]: 25 to 50 µg/mL
- MIC Without NaCl [1]: 6.25 to 12.5 µg/mL
- MIC ([2]; Josh 230): 4 µg/mL
- MIC ([3]; Josh 28): 2 µg/mL
- MIC ([4]; St. L P63): 16 µg/mL
- MIC ([5]; BB2012-181): >32 µg/mL
- MIC ([6]; BB2013-32): 16 µg/mL
- MIC ([7]; ARLG-1012): 8 µg/mL
- MIC ([8]; BB2013-30): 16 µg/mL
- MIC ([9]; BW25113): 8 µg/mL
- MIC [10]: 8 µg/mL
- MIC ([11]; BB2009-209): >32 µg/mL
- MIC ([12]; J3702): 32 µg/mL
- MIC ([13]; Oschner KP-1): >32 µg/mL
- MIC ([14]; ATCC 27853): 8 µg/mL
- MIC ([15]; BB2013-100): 32 µg/mL
- MIC ([16]; J4228): 16 µg/mL
- MIC [17]: >32 µg/mL

Compound: NAMRGAKRVWRHI-NH2 [SP7]
- MIC At NaCl [1]: >100 µg/mL
- MIC Without NaCl [1]: 50 to 100 µg/mL

Compound: AIKIRKLFKKLLR-NH2 [SP1]
- MIC At NaCl [1]: 12.5 to 25 µg/mL
- MIC Without NaCl [1]: 3.125 to 6.25 µg/mL
- MIC ([2]; Josh 230): 16 µg/mL
- MIC ([3]; Josh 28): 4 µg/mL
- MIC ([6]; BB2013-32): >32 µg/mL
- MIC ([7]; ARLG-1012): 8 µg/mL
- MIC ([8]; BB2013-30): 16 µg/mL
- MIC ([9]; BW25113): 8 µg/mL
- MIC [10]: 8 µg/mL
- MIC ([11]; BB2009-209): >32 µg/mL
- MIC ([12]; J3702): >32 µg/mL
- MIC ([13]; Oschner KP-1): >32 µg/mL
- MIC ([14]; ATCC 27853): 4 µg/mL
- MIC ([15]; BB2013-100): 32 µg/mL
- MIC ([16]; J4228): 8 µg/mL
- MIC [17]: >32 µg/mL

Compound: CC[C@@H](C)[C@@H](NC(=O)[C@@H](Cc1c[nH]c2ccccc12)NC(=O)[C@H](N)CCCNC(=N)N)C(=O)N[C@H](CCCNC(=N)N)C(=O)N[C@H](Cc1c[nH]c2ccccc12)C(=O)N[C@@H](C(=O)N[C@H](Cc1c[nH]c2ccccc12)C(=O)N[C@H](CCCNC(=N)N)C(=O)N[C@H](CCCCN)C(=O)N[C@H](CCCCN)C(=O)N[C@H](CC(C)C)C(=O)N[C@H](CCCNC(=N)N)C(N)=O)C(C)C [SP15D] (H-[dR][dW][dI][dR][dW][dV][dW][dR][dK][dK][dL][dR]-NH2)
- MIC At NaCl [1]: 0.78 to 1.56 µg/mL
- MIC Without NaCl [1]: 0.39 to 0.78 µg/mL

Compound: HFKIRKRFVKKLV-NH2 [SP13]
- MIC At NaCl [1]: >100 µg/mL
- MIC Without NaCl [1]: 6.25 to 12.5 µg/mL

Compound: CC[C@@H](C)[C@@H](NC(=O)[C@@H](C)N)C(=O)N[C@H](CCCCN)C(=O)N[C@@H](C(=O)N[C@H](CCCNC(=N)N)C(=O)N[C@H](CCCCN)C(=O)N[C@H](CC(C)C)C(=O)N[C@H](Cc1ccccc1)C(=O)N[C@H](CCCCN)C(=O)N[C@H](CCCCN)C(=O)N[C@H](CC(C)C)C(=O)N[C@H](CC(C)C)C(=O)N[C@H](CCCNC(=N)N)C(N)=O)[C@H](C)CC [SP1D] (H-[dA][dI][dK][dI][dR][dK][dL][dF][dK][dK][dL][dL][dR]-NH2)
- MIC At NaCl [1]: 12.5 to 25 µg/mL
- MIC Without NaCl [1]: 3.125 to 6.25 µg/mL

Compound: AKVLKISRRAFRK-NH2 [SP10]
- MIC At NaCl [1]: >100 µg/mL
- MIC Without NaCl [1]: 25 to 50 µg/mL

Compound: RWIRWVWRKKLR-NH2 [SP15]
- MIC At NaCl [1]: 3.125 to 6.25 µg/mL
- MIC Without NaCl [1]: 0.78 to 1.56 µg/mL

Compound: C[C@@H](O)[C@H]1C(=O)N2C(C(=O)O)=C(S[C@@H]3CN[C@H](C(=O)N(C)C)C3)[C@H](C)[C@H]12 [Meropenem, reference compound]
- MIC ([2]; Acinetobacter baumannii, JOSH230, A. baumannii Josh 230, phenotype OXA-48, non-cation adjusted MHB broth, polypropylene plates, meropenem by standard CLSI method, read-out: MIC): 1 µg/mL (≈ 2.61 µM)
- MIC ([3]; Acinetobacter baumannii, JOSH28, A. baumannii Josh 28, phenotype Susceptible, non-cation adjusted MHB broth, polypropylene plates, meropenem by standard CLSI method, read-out: MIC): 32 µg/mL (≈ 83.4 µM)
- MIC ([4]; Klebsiella aerogenes, ST.LP63, E. aerogenes St. L P63, phenotype NDM-1, non-cation adjusted MHB broth, polypropylene plates, meropenem by standard CLSI method, read-out: MIC): 16 µg/mL (≈ 41.7 µM)
- MIC ([5]; Enterobacter cloacae, BB2012181, E. cloacae BB2012-181, phenotype R: Meropenem, non-cation adjusted MHB broth, polypropylene plates, meropenem by standard CLSI method, read-out: MIC): 16 µg/mL (≈ 41.7 µM)
- MIC ([6]; Enterobacter cloacae, BB201332, E. cloacae BB2013-32, phenotype FQR, non-cation adjusted MHB broth, polypropylene plates, meropenem by standard CLSI method, read-out: MIC): 0.5 µg/mL (≈ 1.3 µM)
- MIC ([7]; Escherichia coli, ARLG1012, E. coli ARLG-1012, phenotype NDM, non-cation adjusted MHB broth, polypropylene plates, meropenem by standard CLSI method, read-out: MIC): 64 µg/mL (≈ 167 µM)
- MIC ([8]; Escherichia coli, BB201330, E. coli BB2013-30, phenotype R:carbapenem, non-cation adjusted MHB broth, polypropylene plates, meropenem by standard CLSI method, read-out: MIC): 1 µg/mL (≈ 2.61 µM)
- MIC ([9]; Escherichia coli, E. coli BW25113 (7636), phenotype WT, Tol parent strain, non-cation adjusted MHB broth, polypropylene plates, meropenem by standard CLSI method, read-out: MIC): ≤ 0.125 µg/mL
- MIC ([10]; Escherichia coli, read-out: MIC): ≤ 0.125 µg/mL
- MIC ([11]; Klebsiella pneumoniae, BB2009209, K. pneumoniae BB2009-209, phenotype KPC-2, non-cation adjusted MHB broth, polypropylene plates, meropenem by standard CLSI method, read-out: MIC): 32 µg/mL (≈ 83.4 µM)
- MIC ([12]; Klebsiella pneumoniae, K. pneumoniae J3702, phenotype Susceptible, non-cation adjusted MHB broth, polypropylene plates, meropenem by standard CLSI method, read-out: MIC): ≤ 0.125 µg/mL
- MIC ([13]; Klebsiella pneumoniae, K. pneumoniae Oschner KP-1, phenotype KPC-3, non-cation adjusted MHB broth, polypropylene plates, meropenem by standard CLSI method, read-out: MIC): 16 µg/mL (≈ 41.7 µM)
- MIC ([14]; Pseudomonas aeruginosa, ATCC27853, P. aeruginosa ATCC 27853, phenotype CLSI Control, non-cation adjusted MHB broth, polypropylene plates, meropenem by standard CLSI method, read-out: MIC): 1 µg/mL (≈ 2.61 µM)
- MIC ([15]; Pseudomonas aeruginosa, BB2013100, P. aeruginosa BB2013-100, phenotype FQR, non-cation adjusted MHB broth, polypropylene plates, meropenem by standard CLSI method, read-out: MIC): 1 µg/mL (≈ 2.61 µM)
- MIC ([16]; Pseudomonas aeruginosa, P. aeruginosa J4228, phenotype R: Meropenem, non-cation adjusted MHB broth, polypropylene plates, meropenem by standard CLSI method, read-out: MIC): > 64 µg/mL
- MIC ([17]; E. asburiae/cloacae St. L P23, phenotype NDM-1, non-cation adjusted MHB broth, polypropylene plates, meropenem by standard CLSI method, read-out: MIC): 16 µg/mL (≈ 41.7 µM)

Compound: GIKIRKLFKKLLR-NH2 [SP2]
- MIC At NaCl [1]: 6.25 to 12.5 µg/mL
- MIC Without NaCl [1]: 3.125 to 6.25 µg/mL

Compound: IRPAKLRWFKKIK-NH2 [SP5]
- MIC At NaCl [1]: >100 µg/mL
- MIC Without NaCl [1]: 12.5 to 25 µg/mL

Compound: RLFIKKLKFITRR-NH2 [SP6]
- MIC At NaCl [1]: 25 to 50 µg/mL
- MIC Without NaCl [1]: 3.125 to 6.25 µg/mL

Compound: IRRRIRLIVRRQI-NH2 [SP12]
- MIC At NaCl [1]: 12.5 to 25 µg/mL
- MIC Without NaCl [1]: 1.56 to 3.125 µg/mL

Compound: KVWSRLRKIFSTR-NH2 [SP9]
- MIC At NaCl [1]: 6.25 to 12.5 µg/mL
- MIC Without NaCl [1]: 3.125 to 6.25 µg/mL

Compound: RWIRWVWRKKLRI-NH2 [SP14]
- MIC At NaCl [1]: 12.5 to 25 µg/mL
- MIC Without NaCl [1]: 3.125 to 6.25 µg/mL

Compound: IRRWRLHWFRRAI-NH2 [SP11]
- MIC At NaCl [1]: 12.5 to 25 µg/mL
- MIC Without NaCl [1]: 3.125 to 6.25 µg/mL
